Data taken from patent publication US8124637B2, “Anthra [1, 2-d]imidazole-6,11-dione derivatives, preparation method and application thereof” (National Defense Medical Center, priority 2010, dated 2012).

What was measured:
[1] = system: K562; assay: NCI 60-cell drug screen, one dose; format: cell-based, human; conditions: Leukemia K562, 1.00E−5 Molar
[2] = MTT assay (relative cell survival), H1299; conditions: human, H1299 non-small cell lung cancer cells (PhTERT-SEAP), Relative MTT viability (%)
Experimental: Further, cells were subjected to MTT assay to compare the relative toxicity or effect of each compound on cell proliferation and activity.
The above-described cells are cultured in a 96-well plate, to which was added with 25 μl MTT solution, and cultured in a 37° C. carbon dioxide incubator for 4 hours. Then, 100 μl Lysis buffer is added and incubated in a 37° C. carbon dioxide incubator overnight. An ELISA reader (Bio-Rad Model 450) is used to read optical density (O.D.) at 550 nm.
After being subjected to different compound treatments for 72 hours, cells were treated with a fixed amount of MTT solution for 28 hours. Then, DMSO was used to dissolve back formazan, an O. D. value was detected at wavelength in the range of 550/670 nm, and calculated accordingly the cell survival rate (as shown in Table 1).

[3] = system: RXF 393; assay: NCI 60-cell drug screen, one dose; format: cell-based, human; conditions: Renal Cancer RXF 393, 1.00E−5 Molar
[4] = system: CAKI-1; assay: NCI 60-cell drug screen, one dose; format: cell-based, human; conditions: Renal Cancer CAKI-1, 1.00E−5 Molar
[5] = system: OVCAR-3; assay: NCI 60-cell drug screen, one dose; format: cell-based, human; conditions: Ovarian Cancer OVCAR-3, 1.00E−5 Molar
Procedure, shortened: (§1)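 Protein-based SRB colorimetric endpoint measured at 48 hours post-exposure. Compound was tested at a single concentration to assess growth inhibition and cytotoxicity.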

[6] = system: UO-31; assay: NCI 60-cell drug screen, one dose; format: cell-based, human; conditions: Renal Cancer UO-31, 1.00E−5 Molar
Procedure, shortened: as §1

[7] = system: MOLT-4; assay: NCI 60-cell drug screen, one dose; format: cell-based, human; conditions: Leukemia MOLT-4, 1.00E−5 Molar
Procedure, shortened: as §1

[8] = system: SF-295; assay: NCI 60-cell drug screen, one dose; format: cell-based, human; conditions: CNS Cancer SF-295, 1.00E−5 Molar
Procedure, shortened: as §1

[9] = system: MDA-MB-231/ATCC; assay: NCI 60-cell drug screen, one dose; format: cell-based, human; conditions: Breast Cancer MDA-MB-231/ATCC, 1.00E−5 Molar
Procedure, shortened: as §1

[10] = system: NCI-H226; assay: NCI 60-cell drug screen, one dose; format: cell-based, human; conditions: Non-Small Cell Lung Cancer NCI-H226, 1.00E−5 Molar
Procedure, shortened: as §1

[11] = system: TK-10; assay: NCI 60-cell drug screen, one dose; format: cell-based, human; conditions: Renal Cancer TK-10, 1.00E−5 Molar
Procedure, shortened: as §1

[12] = system: M14; assay: NCI 60-cell drug screen, one dose; format: cell-based, human; conditions: Melanoma M14, 1.00E−5 Molar
Procedure, shortened: as §1

[13] = system: T-47D; assay: NCI 60-cell drug screen, one dose; format: cell-based, human; conditions: Breast Cancer T-47D, 1.00E−5 Molar
Procedure, shortened: as §1

[14] = system: COLO 205; assay: NCI 60-cell drug screen, one dose; format: cell-based, human; conditions: Colon Cancer COLO 205, 1.00E−5 Molar
Procedure, shortened: as §1

[15] = system: HL-60(TB); assay: NCI 60-cell drug screen, one dose; format: cell-based, human; conditions: Leukemia HL-60(TB), 1.00E−5 Molar
[16] = system: U251; assay: NCI 60-cell drug screen, one dose; format: cell-based, human; conditions: CNS Cancer U251, 1.00E−5 Molar
Procedure, shortened: as §1

[17] = system: HT29; assay: NCI 60-cell drug screen, one dose; format: cell-based, human; conditions: Colon Cancer HT29, 1.00E−5 Molar
Procedure, shortened: as §1

[18] = system: IGROV1; assay: NCI 60-cell drug screen, one dose; format: cell-based, human; conditions: Ovarian Cancer IGROV1, 1.00E−5 Molar
Procedure, shortened: as §1

[19] = system: MALME-3M; assay: NCI 60-cell drug screen, one dose; format: cell-based, human; conditions: Melanoma MALME-3M, 1.00E−5 Molar
Procedure, shortened: as §1

[20] = system: NCI-H460; assay: NCI 60-cell drug screen, one dose; format: cell-based, human; conditions: Non-Small Cell Lung Cancer NCI-H460, 1.00E−5 Molar
Procedure, shortened: as §1

[21] = system: SK-MEL-2; assay: NCI 60-cell drug screen, one dose; format: cell-based, human; conditions: Melanoma SK-MEL-2, 1.00E−5 Molar
Procedure, shortened: as §1

[22] = system: SNB-75; assay: NCI 60-cell drug screen, one dose; format: cell-based, human; conditions: CNS Cancer SNB-75, 1.00E−5 Molar
Procedure, shortened: as §1

[23] = system: PC-3; assay: NCI 60-cell drug screen, one dose; format: cell-based, human; conditions: Prostate Cancer PC-3, 1.00E−5 Molar
Procedure, shortened: as §1

[24] = system: A549/ATCC; assay: NCI 60-cell drug screen, one dose; format: cell-based, human; conditions: Non-Small Cell Lung Cancer A549/ATCC, 1.00E−5 Molar
Procedure, shortened: as §1

[25] = NCI 60-cell drug screen, one dose; format: cell-based, human; conditions: Renal Cancer A489, 1.00E−5 Molar
Procedure, shortened: as §1

[26] = system: OVCAR-8; assay: NCI 60-cell drug screen, one dose; format: cell-based, human; conditions: Ovarian Cancer OVCAR-8, 1.00E−5 Molar
Procedure, shortened: as §1

[27] = system: SN12C; assay: NCI 60-cell drug screen, one dose; format: cell-based, human; conditions: Renal Cancer SN12C, 1.00E−5 Molar
Procedure, shortened: as §1

[28] = system: UACC-62; assay: NCI 60-cell drug screen, one dose; format: cell-based, human; conditions: Melanoma UACC-62, 1.00E−5 Molar
Procedure, shortened: as §1

[29] = system: HCC-2998; assay: NCI 60-cell drug screen, one dose; format: cell-based, human; conditions: Colon Cancer HCC-2998, 1.00E−5 Molar
Procedure, shortened: as §1

[30] = system: 786-0; assay: NCI 60-cell drug screen, one dose; format: cell-based, human; conditions: Renal Cancer 786-0, 1.00E−5 Molar
Procedure, shortened: as §1

[31] = system: NCI/ADR-RES; assay: NCI 60-cell drug screen, one dose; format: cell-based, human; conditions: Ovarian Cancer NCI/ADR-RES, 1.00E−5 Molar
Procedure, shortened: as §1

[32] = system: NCI-H322M; assay: NCI 60-cell drug screen, one dose; format: cell-based, human; conditions: Non-Small Cell Lung Cancer NCI-H322M, 1.00E−5 Molar
Procedure, shortened: as §1

O=C1c2ccccc2C(=O)c2c1ccc1nc(CN3CCN(c4ccccn4)CC3)[nH]c21 [CL28, 2-((4-(pyridin-2-yl)piperazin-1-yl)methyl)-1H-anthra[1,2-d]imidazole-6,11-dione]
Growth Percent [1]: 83.48%
viability at 72 h, 1 µM ([2]; 1 μM): 90.5 ± 4.34%
viability at 72 h, 10 µM ([2]; 10 μM): 69.5%
viability at 72 h, 100 µM ([2]; 100 μM): 19.8%
Growth Percent [3]: 89.67%
Growth Percent [4]: 68.83%
Growth Percent [5]: 88.67%
Growth Percent [6]: 60.42%
Growth Percent [7]: 61.76%
Growth Percent [8]: 92.70%
Growth Percent [9]: 72.65%
Growth Percent [10]: 91.88%
Growth Percent [11]: 120.65%
Growth Percent [12]: 103.99%
Growth Percent [13]: 56.78%
Growth Percent [14]: 110.79%
Growth Percent [15]: 97.31%
Growth Percent [16]: 86.28%
Growth Percent [17]: 75.79%
Growth Percent [18]: 91.25%
Growth Percent [19]: 124.77%
Growth Percent [20]: 79.98%
Growth Percent [21]: 98.34%
Growth Percent [22]: 82.14%
Growth Percent [23]: 89.10%
Growth Percent [24]: 91.07%
Growth Percent [25]: 68.23%
Growth Percent [26]: 88.07%
Growth Percent [27]: 79.85%
Growth Percent [28]: 85.13%
Growth Percent [29]: 92.28%
Growth Percent [30]: 91.03%
Growth Percent [31]: 81.16%
Growth Percent [32]: 93.77%
